Reference: paper PMC6874530, “Structural analysis identifies an escape route from the adverse lipogenic effects of liver X receptor ligands” (Communications Biology, 2019)
Read-outs that look alike come from different tables or passages of the source.

Assays:
Abca1 mRNA in intestine = assay: intestinal Abca1 mRNA induction in C57BL/6 mice (Emax model); format: in vivo, mouse; details: for ED50: Mus musculus
Description: All procedures involving animals were conducted in accordance with accepted standards of good animal practice and approved by the respective local animal ethics committees (Gothenburg region Local Ethics Review Committee on Animal experiments and University of Virginia Animal Care and Use Committee). Male C57BL/6JOlaHsd mice were retrieved from Harlan Laboratories (Horst, The Netherlands) around 7 weeks of age. In the studies with BMS-852907, male 8-week C57BL/6J mice (Jackson Laboratories) were used. Mice were given ad libitum access to water and standard rodent chow during the studies.
Solid compounds were solubilized in PEG400/Ethanol/Solutol/Water solution (36.3/9.1/4.6/50%). Compounds were given daily by oral gavage, 5 ml kg^−1, at doses ranging from 0.1 to 100 μmol kg^−1 of body weight for 4 days. Animals were terminated 3 h after the last dose.
(§1) At termination, the whole-blood volume was drawn from isoflurane-anesthetized mice via an incision in the carotid artery into EDTA blood tubes (S-Monovette®, EDTA KE/1.3 mL, Sarstedt, Nümbrecht, Germany or BD Microtainers®, Benton, Dickinson and Company, Franklin Lakes, New Jersey, USA). Blood samples were placed on ice and centrifuged within an hour (15 min, 2500 × g, 4 °C or 5 min, 16000 × g, 4 °C). The plasma was then dispensed in separate tubes and kept at −80 °C for later analysis of compound concentration and TG levels. For the analysis of intestinal Abca1 transcript levels, a 3–5-mm long segment of the duodenum was excised and cleared from any gut contents. Tissues were instantly snap frozen in liquid nitrogen and stored at −80 °C.
Snap-frozen intestinal tissues were quickly disrupted in QIAzol® (Qiagen, Hilden, Germany) or PureZOL™ (Bio-Rad Laboratories, Hercules, California, USA) by using a bead tissue homogenizer. Lysates were mixed with chloroform and centrifuged at 6000 × g for 15 min at 4 °C. Total RNA was purified from the upper aqueous phase on the ABI PRISM™ 6100 Nucleic Acid PrepStation (Applied Biosystems, Foster City, USA) or by using the RNeasy kit® (QIAGEN Sciences Inc., Germantown, Maryland, USA) including on-column DNase treatment by using the respective manufacturer’s protocol and reagents. Concentration of total RNA was determined on a NanoDrop™ ND-100 Spectrophotometer (Saveen Werner, Lögstrup, Sweden). The RNA templates were transferred to cDNA by reverse transcription by using the High-Capacity cDNA Reverse Transcription Kit (Applied Biosystems, Foster City, USA) according to the manufacturer’s protocol. Mouse ATP-binding cassette subfamily A member 1 (Abca1) was analyzed by using the forward primer 5′-[…]-3′, reverse primer 5′-[…]-3′, and the dual-labeled probe 5′-6FAM-[…]-TAMRA-3′. Mouse ribosomal protein large P0 (Rplp0, 36b4) was analyzed by using the forward primer 5′-[…]-3′, reverse primer 5′-[…]-3′, and the FAM-labeled probe 5′-[…]-TAMRA-3′. In the study with BMS-852907, RT-qPCR reactions were carried out in separate triplicate wells for Abca1 and Rplp0, respectively, by using 20 ng of cDNA template, 385 nM of the above-mentioned primers, and iQ™ SYBR Green Supermix (Bio-Rad, Hercules, California, USA) on a Bio-Rad MyiQ instrument (Bio-Rad, Hercules, California, USA). In the other studies, 400 nM Abca1 forward and reverse primers, 200 nM Abca1 probe, 200 nM Rplp0 forward and reverse primers, and 100 nM Rplp0 probe were mixed with 15 ng of cDNA template and TaqMan™ Gene Expression Master Mix (Applied Biosystems, Foster City, USA). The RT-qPCR reactions were performed on a 7500 Real-time PCR system (Applied Biosystems, Foster City, USA). Cycle threshold values (Ct) were retrieved from the instrument software. Relative changes in mRNA expression were calculated by using the comparative cycle method (2^−ΔΔCt). […]

plasma triglycerides [1] = assay: plasma TG induction in C57BL/6 mice vs plasma compound concentration (log-linear model); format: in vivo, mouse; details: for TG induction in plasma m (scaling factor) / TG induction in plasma C2, drug concentration corresponding to a twofold increase in TG levels: (% RSE); for TG induction in plasma Attributed class: mouse, in vivo
Description: Male C57BL/6JOlaHsd mice were retrieved from Harlan Laboratories (Horst, The Netherlands) around 7 weeks of age. […] Mice were given ad libitum access to water and standard rodent chow during the studies.
Compounds were given daily by oral gavage, 5 ml kg^−1, at doses ranging from 0.1 to 100 μmol kg^−1 of body weight for 4 days. Animals were terminated 3 h after the last dose.
as §1
Plasma triglyceride levels were analyzed by using the Triglycerides/Glycerol Blanked reagent kit (Roche Diagnostics GMBH, Mannheim, Germany). Samples were measured on an ABX Pentra 400 instrument (Horiba Medical, Irvine, California, USA) or Cobas Mira plus instrument (Roche Diagnostics Corporation, Indianapolis, USA). […] Absorbance was measured by using a Tecan Infinite M200 plate reader (Tecan Austria GmbH, Salzburg, Austria).
About 25 µL of plasma was precipitated with 150 µL of cold acetonitrile containing 0.2% formic acid. […] Sample analysis was performed by using a reversed-phase high-pressure liquid chromatography system coupled to a Quattro Ultima triple-quadrupole mass spectrometer (Waters, UK). A rapid 2-min 4–90% (vol/vol) acetonitrile (containing 0.2% formic acid) gradient was used for chromatographic separation.
To rank the compounds, the drug concentration (C2) needed to generate a twofold increase in plasma TG was estimated by rearranging Eq. (2):3 C2=exp^2fold−BL−1/m^1/γ

plasma triglycerides [2] = tested on: plasma triglycerides; design: method as in van der Hoorn et al. 2011; details: AZ876 high dose 20 µmol·kg−1·day−1, GW3965 at a similar dose; ref van der Hoorn et al. 2011; cited from earlier work
[3] = po, read-out: Abca1 mRNA induction in intestine Attributed class
[4] = oral gavage daily for 4 days, C57BL/6 mice, (% RSE), read-out: Abca1 mRNA induction in intestine ED50

Row | Compound | class of intestinal Abca1 induction (Abca1 mRNA in intestine) | ED50 (Abca1 mRNA in intestine; [3]) | ED50 (Abca1 mRNA in intestine; [4]) | TG induction in plasma m (scaling factor) (plasma triglycerides [1]) | TG induction in plasma Attributed class (plasma triglycerides [1]) | TG induction in plasma C2, drug concentration corresponding to a twofold increase in TG levels (plasma triglycerides [1]) | increase of plasma triglyceride levels (plasma triglycerides [2])
1 | O=C(O)Cc1ccc(COc2cccc(-c3c(Cc4ccccc4)cnc4c(C(F)(F)F)cccc34)c2)cc1 [WAY-254011, reference compound] | high ABCA1 | ≤ 11.3 µmol/kg | < 30 µmol/kg | 1.94 (4) | Lipogenic | 0.794 (8) μM | 
2 | CC(C)(C)N1C(=O)C(Nc2ccc(N3CCCCC3)cc2)=C(c2ccccc2)S1(=O)=O [AZ876] |  | ≤ 11.3 µmol/kg | 0.956 µmol/kg | 3.44 (49) | Lipogenic | 0.269 (93) μM | 110%
